{
  "source": "paper PMC8207694",
  "about": "“Nucleoside transporter-guided cytarabine-conjugated liposomes for intracellular methotrexate delivery and cooperative choriocarcinoma therapy” (Journal of Nanobiotechnology, 2021)",
  "experiment": "Pharmacokinetic study after intravenous administration",
  "assay_type": "in vivo, SD rats",
  "conditions": "rats",
  "procedure": "The advanced Automatic Blood Collection System (Instech, USA) was applied to study the pharmacokinetic feature of various MTX formulations. Female SD rats (200–220 g) were acclimatized at 25 ± 2 °C for 1 week before the experiments. Animals were randomized into 3 groups and each group contained 3 rats. Group I, II, and III were intravenously given free MTX, Lipo@MTX, and Cy-Lipo@MTX respectively at a dose of 10 mg MTX-equivalent/kg body weight. Blood (200 μL) was obtained at 0.25, 0.5, 1, 2, 4, 8, 12, 24, 48, and 72 h through jugular vein after administration. 150 μL of plasma was combined with 450 μL acetonitrile to precipitate proteins, and drug content of samples was analyzed by HPLC. The pharmacokinetic software (DAS 2.0) was used to assess key pharmacokinetic parameters including mean residence time (MRT), area under the curve (AUC), peak plasma concentration (Cmax), half-life (t1/2), and time to maximal plasma concentration (Tmax).",
  "key": {"[1]": {"conditions": "female, Sprague-Dawley (SD), rat, plasma, iv, 10 mg/kg, 10 mg MTX-equivalent/kg"}},
  "data": [
    {"compound": "CN(Cc1cnc2nc(N)nc(N)c2n1)c1ccc(C(=O)N[C@@H](CCC(=O)O)C(=O)O)cc1", "note": "[free MTX, Methotrexate]", "values": [
      {"measurement": "AUC(0-t)", "setting": "[1]", "value": "62400 ± 21500", "unit": "ng·h/mL"},
      {"measurement": "Cmax", "setting": "[1]", "value": "13500 ± 1960", "unit": "ng/mL"},
      {"measurement": "clearance", "setting": "[1]", "value": 1.43, "unit": "mL/min"},
      {"measurement": "MRT last", "setting": "female, Sprague-Dawley (SD), rat, plasma, iv, 10 mg/kg, i.v., 10 mg MTX-equivalent/kg, read-out: MRT(0-t)", "value": "6.27 ± 2.52", "unit": "h"},
      {"measurement": "half-life", "setting": "female, Sprague-Dawley (SD), rat, plasma, iv, 10 mg/kg, i.v., 10 mg MTX-equivalent/kg, read-out: t1/2β (converted)", "value": "5.23 ± 2.72", "unit": "h"},
      {"measurement": "concentration at 0.25 h", "setting": "female, Sprague-Dawley (SD), rat, plasma, iv, after 0.25 h, i.v., 10 mg/kg, read-out: plasma MTX concentration", "value": "13500 ± 1960", "unit": "ng/mL"},
      {"measurement": "concentration at 4 h", "setting": "female, Sprague-Dawley (SD), rat, plasma, iv, after 4 h, i.v., 10 mg/kg, read-out: plasma MTX concentration", "value": "4590 ± 1610", "unit": "ng/mL"},
      {"measurement": "concentration at 12 h", "setting": "female, Sprague-Dawley (SD), rat, plasma, iv, after 12 h, i.v., 10 mg/kg, read-out: plasma MTX concentration", "value": "1140 ± 490", "unit": "ng/mL"},
      {"measurement": "concentration at 24 h", "setting": "female, Sprague-Dawley (SD), rat, plasma, iv, after 24 h, i.v., 10 mg/kg, read-out: plasma MTX concentration", "value": "430 ± 360", "unit": "ng/mL"},
      {"measurement": "Vss", "setting": "i.v., 10 mg MTX-equivalent/kg", "value": "0.58 ± 0.10 mg/kg/(mg/mL)"}
    ]}
  ]
}
